Measurements taken from patent EP0777471B1, “INHIBITION OF LEUKOTRIENE BIOSYNTHESIS WITH UREA DERIVATIVES” (MINNESOTA MINING AND MANUFACTURING COMPANY, priority 1994, dated 1996).
“And” between values parts separate entries of the source, which are not always exact repeats. Identical values can stand only once. Like-named read-outs stand apart in the source and are kept apart here.

Tests used:
5-lipoxygenase = biological target: T1, 5-lipoxygenase (Homo sapiens, UniProt P09917); experiment: 5-Lipoxygenase inhibition in human leukocytes (A23187-stimulated, LTC4 radioimmunoassay); format: cell-based; settings: human leukocytes, A23187 Calcium Ionophore, LTC4 formed; read-out: IC50
T1 construct: Whole human blood is collected by venipuncture into EDTA; endogenous in cells; host or cells: leukocytes isolated from whole human blood (dextran sedimentation, hypotonic lysis)
T1 sequence (P09917 1-674): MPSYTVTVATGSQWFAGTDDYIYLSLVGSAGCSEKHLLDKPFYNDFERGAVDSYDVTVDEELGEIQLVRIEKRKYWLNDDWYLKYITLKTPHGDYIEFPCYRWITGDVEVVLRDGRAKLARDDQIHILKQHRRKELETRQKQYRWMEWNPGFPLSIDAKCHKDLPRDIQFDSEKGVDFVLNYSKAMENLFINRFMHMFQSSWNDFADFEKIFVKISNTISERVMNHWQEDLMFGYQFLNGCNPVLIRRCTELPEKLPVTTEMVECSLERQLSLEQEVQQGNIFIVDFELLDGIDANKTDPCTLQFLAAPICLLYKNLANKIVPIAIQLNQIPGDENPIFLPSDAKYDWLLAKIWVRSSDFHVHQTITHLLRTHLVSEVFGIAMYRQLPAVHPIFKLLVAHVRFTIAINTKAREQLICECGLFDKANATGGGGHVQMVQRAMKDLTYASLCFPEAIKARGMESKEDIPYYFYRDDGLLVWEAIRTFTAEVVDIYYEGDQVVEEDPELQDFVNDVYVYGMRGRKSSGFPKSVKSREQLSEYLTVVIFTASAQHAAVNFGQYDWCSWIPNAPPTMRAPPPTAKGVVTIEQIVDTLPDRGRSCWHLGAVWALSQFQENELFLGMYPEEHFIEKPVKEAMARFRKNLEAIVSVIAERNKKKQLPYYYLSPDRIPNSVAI
Protocol: The test method described below measures the ability of compounds to inhibit 5-lipoxygenase activity in human leukocytes.
Whole human blood is collected by venipuncture into EDTA (1.4 mL of 0.25M per 60 mL of whole blood). The red blood cells are sedimented with a 6% dextran/0.9% sodium chloride solution at a ratio of 25 mL whole blood to 15 mL dextran solution. The blood/dextran combination is mixed by inversion and the red blood cells are allowed to settle out for 45 minutes at ambient temperature. The plasma/dextran supernatant is removed then centrifuged at ambient temperature at 3000 rpm for 10 minutes. The plasma/dextran supernatant is removed and the cells are resuspended in 10 mL of the plasma/dextran solution. […] The pellet is then resuspended into Tris buffer containing 1 mM calcium chloride to provide approximately 1.0 X 10^7 cells/mL.
Compounds are dissolved in dimethyl sulfoxide. […] Each concentration is tested in duplicate.
A 15 µL portion of Tris buffer containing 1 mM calcium chloride is added to each well of a 96 well microtiter plate. A 1 µL portion of drug solution or vehicle (dimethyl sulfoxide) is added to each well followed by the addition of an 75 µL portion of the cell suspension. The plates are gently mixed then allowed to stand at ambient temperature for 10 minutes. A 10 µL portion of 30 µM A23187 Calcium Ionophore (prepared by dissolving the ionophore in DMSO and then diluting 1:80 into the Tris buffer) is added to each well except the wells that contain the blanks (The blank wells measure the level of LTC4 production in the absence of A23187.). The plates are gently mixed then incubated at 37°C for 10 minutes.
Following incubation the plates are centrifuged at 2000 rpm for 1.5 minutes and the supernatant is removed as quickly as possible to stop the reaction. The supernatants are frozen at -20°C until they are assayed.
The supernatants are assayed for the presence of Leukotriene C4 by radioimmunoassay which is performed according to the manufacturer's (Advanced Magnetics; Cambridge, MA) instructions.

[1] = system: production of Leukotriene B4 (LTB4); experiment: Dog ex vivo Leukotriene B4 inhibition (oral dosing, blood challenged with calcium ionophore); format: in vivo, beagle dogs; settings: each entry one dog, negative = stimulation of LTB4 production; for % Inhibition 6 hour: 6 hour post dose; for inhibition at 5 mg/kg: Canis lupus familiaris, po
Protocol: The test method described below measures the ability of a compound when administered orally to dogs to inhibit the production of Leukotriene B4 (LTB4) in their blood which is drawn and challenged at selected time points.
The test is conducted in beagle dogs (male and female; about 10 Kg). Prior to starting, the neck area of the beagle is shaved to allow easy access to the jugular vein. A 3-4 mL sample of blood is drawn from the jugular vein into a heparinized vacutainer. The dog is then dosed using a tube long enough to reach its stomach. The compound is dissolved in PEG 400 at a concentration such that the appropriate dose can be administered in approximately 5 mL. Immediately after the compound is given, a flush using 5 mL of vehicle is given to rinse the dosing tube. At selected time points following the dose, a 3-4 mL sample of blood is drawn.
The blood samples that have been drawn are challenged as soon as possible. A 0.5 mL portion of blood is aliquoted into 3 tubes (1 mL microtiter tubes). A 1 µL portion of 25 mM calcium ionophore in dimethyl sulfoxide is added to 2 of the tubes. A 1 µL portion of dimethyl sulfoxide is added to the third tube. The tubes are lightly mixed then placed in a 37°C water bath for 30 minutes. The tubes are centrifuged at 11,000 rpm for 3 minutes and the plasma supernatant is transferred to clean tubes. A 50 µL portion of this plasma is added to a I mL microtiter tube containing 200 µL of methanol. The tubes are placed in the freezer at -20°C for at least 1 hour then centrifuged at 2000 rpm for 10 minutes. A 10 µL portion of the methanol supematant is dried under vacuum at ambient temperature and then reconstituted in LTB4 buffer. The amount of LTB4 in the sample is determined by radioimmunoassay performed according to the manufacturer's (Advanced Magnetics; Cambridge, MA) instructions. Percent inhibition values are obtained by comparing the level of LTB4 in the post-dose sample to the level in the pre-dose sample according to the equation below. % Inhibition =((LTB4 predose) - (LTB4 postdose))/((LTB4 predose))X 100 [formula]
A number of the compounds that are useful in the practice of the method of the invention were tested. The results are shown in Table 15 below where each entry represents the results from one dog. A negative number indicates stimulation of LTB4 production. All compounds were tested at a dose of 5 mg/Kg.

[2] = system: production of Leukotriene B4; experiment: Rat ex vivo Leukotriene B4 inhibition (oral dosing, blood challenged with A23187); format: in vivo, Rats; settings: two hours post dose
Protocol: The test method described below measures the ability of a compound when administered orally to rats to inhibit the production of Leukotriene B4 in their blood which is drawn and challenged.
Rats (CD, male, non-fasted, 250 g) are lightly anesthetized with carbon dioxide and an approximately 0.75 mL sample of whole blood is obtained via cardiac puncture. The sample is dispensed into 12 X 75 mm polypropylene tubes containing 8-10 µL of 10,000 units/mL heparin, mixed and then maintained on ice. The rats are allowed to recover approximately one hour then dosed orally with compound dissolved in PEG 400 at a 5 mL/Kg volume. Five (5) rats are utilized per group. Two (2) hours post dose the rats are again anesthetized with carbon dioxide and the blood sampled again via cardiac puncture.
Duplicate 200 µL portions of blood are added to 1.0 mL polypropylene tubes. A 10 µL portion of 1mM A23187 Calcium Ionophore in dimethyl sulfoxide/Tris buffer is added to each tube. The tubes are gently vortexed then incubated in a 37°C water bath for 30 minutes. The tubes are then centrifuged at 4000 rpm for 10 minutes. 50 µL portions of plasma are transferred to 1.0 mL tubes containing 200 µL of methanol. The tubes are vortexed then placed in the freezer overnight.
The tubes are removed from the freezer then centrifuged at 4000 rpm for 10 minutes. […] portions of the methanol/plasma supernatant and 10 µL methanol dilutions of LTB4 standard curve are transferred to 96 well v-bottom microtiter plates. The plates are vacuum dried at 40°C. A 40 µL portion of LTB4 radioimmunoassay buffer is added to each well. The plate is bath sonicated for 5 minutes then assayed according to the manufacturer's (Advanced Magnetics; Cambridge, MA) instructions. Percent inhibition values are obtained by comparing the level of LTB4 in the post-dose samples to the level in the pre-dose samples according to the equation below. % Inhibition =((LTB4 pre-dose) - (LTB4 post-dose))/((LTB4 pre-dose))X 100 [formula]

[3] = system: production of Leukotriene C4 in mouse peritoneal macrophages; experiment: In vitro mouse peritoneal macrophage Leukotriene C4 inhibition (zymosan-stimulated, LTC4 radioimmunoassay); format: cell-based; settings: Zymosan 50 µg/mL
Protocol: The test method described below measures the ability of compounds to inhibit the production of Leukotriene C4 in mouse peritoneal macrophages.
Mice (female, CD-1, weighing 25 g) are euthanized by exposure to carbon dioxide. The peritoneal cavity is exposed by peeling back the abdominal skin. A 5 mL portion of media (M199 containing 1% fetal bovine serum, 100 units/mL of penicillin, 100 µg/mL of streptomycin, 20 units/mL of heparin and no glutamine) is injected into the exposed peritoneal cavity of each mouse. The lavage fluid is removed and pooled to yield approximately1 X 10^6 macrophages/mL. A 2 mL portion of lavage fluid is added to each well of a 24 well sterile multidish and the macrophages are allowed to adhere to the plate for 2 hours at 37°C in a 5% carbon dioxide atmosphere. The media is removed and each well is washed with 2 mL of phosphate buffered saline (PBS). A 1 mL portion of media, without heparin, but containing 5 µCi/mL of 3H-myoinositol is added to each well and the plates are incubated overnight at 37°C in a 5% carbon dioxide atmosphere. The media is removed and the cells are washed twice with 2 mL portions of PBS. A 1 mL portion of Puck's saline formulation A containing 1 mM calcium chloride, 1 mM magnesium chloride and 10 mM lithium chloride is added to each well. (The Puck's formulation is made first as a 10X solution which contains 4 g of potassium chloride, 80 g of sodium chloride and 10 g of glucose per liter. The Puck's saline formulation A is made using 10 mL of the 10X Puck's formulation, 0.47 mL of 7.5% sodium bicarbonate and 2 mL of 1M N-2-hydroxyethylpiperazine-N'-2-ethanesulfonic acid per 100 mL.)
Compounds are dissolved in dimethyl sulfoxide. Compounds are tested at concentrations of 10, 1 and 0.1 µM. Each concentration is tested in duplicate.
A 1 µL portion of compound solution or vehicle (DMSO) is added to each well and the plates are incubated for 15 minutes at 37°C in a 5% carbon dioxide atmosphere. Zymosan is then added to provide a final concentration of 50 µg/mL in each well and the plate is incubated for 1 to 2 hours at 37°C in a 5% carbon dioxide atmosphere.
Following incubation 200 µL portions of media are transferred to 12 X 75 mm tubes. The tubes are either assayed immediately or stored at -20°C until they can be assayed.
The media is assayed for the presence of Leukotriene C4 by radioimmunoassay which is performed according to the manufacturer's (Advanced Magnetics; Cambridge, MA) instructions.

[4] = 1 h, 1 hour post dose, read-out: % Inhibition 1 hour
[5] = 2 h, 2 hour post dose, read-out: % Inhibition 2 hour

## CN(O)C(=O)Nc1cccc(OS(=O)(=O)C(F)(F)F)c1 [Compound 2, 1-hydroxy-1-methyl-3-[3-(trifluoromethylsulfonoxy)phenyl]urea]
5-lipoxygenase
  IC50: 40 nM

## CSc1cccc(NC(=O)N(C)O)c1 [Compound 3, 1-hydroxy-1-methyl-3-[3-(methylthio)phenyl]urea]
5-lipoxygenase
  IC50: 82 nM
[1]; 5 mg/Kg, 2 hour post dose
  % Inhibition 2 hour: 99%
[1]; 5 mg/Kg, 4 hour post dose
  % Inhibition 4 hour: 95%
[1]; 5 mg/Kg
  % Inhibition 6 hour: 51% and 84%
[1]; [4]
  inhibition at 5 mg/kg: 100%
[1]; [5]
  inhibition at 5 mg/kg: 100%
[1]; 4 h, 4 hour post dose, read-out: % Inhibition 4 hour
  inhibition at 5 mg/kg: 83%
[2]; 5 mg/Kg
  %I: 39%

## CN(O)C(=O)Nc1cccc(SC(F)(F)F)c1 [Compound 4, 1-hydroxy-1-methyl-3-[3-(trifluoromethylthio)phenyl]urea]
5-lipoxygenase
  IC50: 27 nM

## CN(O)C(=O)Nc1ccc(F)cc1 [Compound 11, 3-(4-fluorophenyl)-1-hydroxy-1-methylurea]
5-lipoxygenase
  IC50: 49 nM
[1]; 5 mg/Kg, 4 hour post dose
  % Inhibition 4 hour: 77% and 41%
[1]; 5 mg/Kg
  % Inhibition 6 hour: -17% and 30%
[1]; [4]
  inhibition at 5 mg/kg: 100%
[1]; [5]
  inhibition at 5 mg/kg: 100%
[2]; 20 mg/Kg
  %I: 26%
[2]; 50 mg/Kg
  %I: 20%

## COc1cccc(NC(=O)N(O)C(C)C)c1 [Compound 22, 1-hydroxy-3-(3-methoxyphenyl)-1-(1-methylethyl)urea]
5-lipoxygenase
  IC50: 740 nM
[1]; 5 mg/Kg, 2 hour post dose
  % Inhibition 2 hour: 78% and -140%
[1]; [4]
  inhibition at 5 mg/kg: 100%
[3]
  IC50: 300 nM

## Cc1cccc(C)c1NC(=O)N(O)C(C)C [Compound 26, 3-(2,6-dimethylphenyl)-1-hydroxy-1-(1-methylethyl)urea]
5-lipoxygenase
  IC50: > 10000 nM
[3]
  IC50: > 1000 nM

## CSc1ccc(NC(=O)N(O)C2CCCCC2)cc1 [Compound 31, 1-Cyclohexyl-1-hydroxy-3-[4-(methylthio)phenyl]urea]
5-lipoxygenase
  IC50: 6 nM
[2]; 25 mg/Kg
  %I: 40%
[3]
  IC50: 200 nM

## COc1cccc(NC(=O)NO)c1 [Compound 33, 1-hydroxy-3-(3-methoxyphenyl)urea]
5-lipoxygenase
  IC50: 9100 nM
[2]; 25 mg/Kg
  %I: 26%

## CCCN(O)C(=O)Nc1ccccc1 [Compound 55, 1-hydroxy-3-phenyl-1-propylurea]
5-lipoxygenase
  IC50: 52 nM
[2]; 50 mg/Kg
  %I: 8%

## CSc1cccc(NC(=O)N(O)CC(C)C)c1 [Compound 58, 1-Hydroxy-1-(2-methylpropyl)-3-[3-(methylthio)phenyl]urea]
5-lipoxygenase
  IC50: 2 nM
[1]; 5 mg/Kg, 1 hour post dose
  % Inhibition 1 hour: 1% and -24%
[1]; 5 mg/Kg, 2 hour post dose
  % Inhibition 2 hour: -21% and -35%
[1]; 5 mg/Kg, 4 hour post dose
  % Inhibition 4 hour: -43% and -63%
[1]; 5 mg/Kg
  % Inhibition 6 hour: 8% and -34%
[3]
  IC50: 100 nM
